Drawing on paper PMC8438848 (Journal for Immunotherapy of Cancer, 2021), this text covers IC50 for six sequences.

Ends that are not written are not given here.

In one assay the target is HLA-B27:05 (Homo sapiens, UniProt P01889, D138H/D201E/E176V/E204Q/G107R/H137Y/K202T/N104T/N87E/Q56L/Q94K/R106L/R155S/R180L/S101D/S121N/S48T/Y140D/Y33H/Y91C). Description: IC50 in vitro measurement, peptide exchange assay with fluorescence anisotropy. The assay is classed as binding.
On to GRIAFFLKY [SYTL4^S363F], for which the IC50 was 214.7 ± 1.8 nM.
As for GRIAFSLKY [SYTL4^WT], half-maximal inhibition (IC50) required 97.3 ± 2.1 nM.

The target of a further assay is HLA-A03:01 (Homo sapiens, UniProt P04439). Described as above.
RLFPGLAIK [KIF2C^WT] returned an IC50 of 146.2 ± 1.1 nM.
Same read-out and setting: next, RLFLGLAIK [KIF2C^P13L]: 237.4 ± 2 nM; KPILWRGLK [NCAPG2^WT]: 4490 nM; KLILWRGLK [NCAPG2^P333L]: 202.9 ± 1.03 nM.
